Measurements: PubChem BioAssay AID248 (DTP/NCI, 2004)
Where “and” joins values, the source holds several entries; their conditions need not be identical. Identical values can stand only once. Toxic doses and inconclusive results are not listed. Cut-off read from the data, not from the text of the source: active = T/C of 150% or more; inactive = T/C below 125%.

System: L1210 leukemia ip in BDF1 mice, survival T/C
Assay: NCI In Vivo Anticancer Drug Screen. Data for tumor model L1210 Leukemia (intraperitoneal) in B6D2F1 (BDF1) mice
Details: endpoint: mean survival time, higher = longer survival
Method in brief: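 In this screen, tumor-bearing mice given compound are compared to those given vehicle, and their survival values are reported as a treated-to-control quotient.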

[1] = dose: 100.0 mg/kg/injection, schedule: Q04DX003 (ip), vehicle: Klucel (hydroxypropylcellulose) (HPC)
[2] = dose: 100.0 mg/kg/injection, schedule: Q01DX009 (ip), vehicle: Klucel (hydroxypropylcellulose) (HPC)
[3] = dose: 200.0 mg/kg/injection, schedule: Q01DX009 (ip), vehicle: Klucel (hydroxypropylcellulose) (HPC)
[4] = dose: 400.0 mg/kg/injection, schedule: Q01DX009 (ip), vehicle: Klucel (hydroxypropylcellulose) (HPC)
[5] = dose: 100.0 mg/kg/injection, schedule: Q04DX002 (ip), vehicle: saline
[6] = dose: 400.0 mg/kg/injection, schedule: Q04DX002 (ip), vehicle: saline
[7] = dose: 25.0 mg/kg/injection, schedule: Q04DX003 (ip), vehicle: saline
[8] = dose: 50.0 mg/kg/injection, schedule: Q04DX003 (ip), vehicle: saline
[9] = dose: 100.0 mg/kg/injection, schedule: Q01DX001 (ip), vehicle: saline
[10] = dose: 100.0 mg/kg/injection, schedule: Q04DX003 (ip), vehicle: saline
[11] = dose: 200.0 mg/kg/injection, schedule: Q01DX001 (ip), vehicle: saline
[12] = dose: 400.0 mg/kg/injection, schedule: Q01DX001 (ip), vehicle: saline
[13] = dose: 50.0 mg/kg/injection, schedule: Q01DX001 (ip), vehicle: saline

Measured: T/C

O=C1N(c2cccnc2)C(c2ccccc2)C1(c1ccccc1)c1ccccc1 (stereo not given)
inactive: dose: 100.0 mg/kg/injection, schedule: Q04DX003 (ip), vehicle: gum acacia 91 % of control | dose: 200.0 mg/kg/injection, schedule: Q04DX003 (ip), vehicle: gum acacia 87 % of control | dose: 400.0 mg/kg/injection, schedule: Q04DX003 (ip), vehicle: gum acacia 91 % of control

CCCSCC(C)C
inactive: dose: 100.0 mg/kg/injection, schedule: Q01DX009 (ip), vehicle: saline with Tween-80 108 % of control | dose: 200.0 mg/kg/injection, schedule: Q01DX009 (ip), vehicle: saline with Tween-80 98 % of control

COC(=O)C(CCC(=O)CCl)N1C(=O)c2ccccc2C1=O (stereo not given)
inactive: dose: 100.0 mg/kg/injection, schedule: Q04DX003 (ip), vehicle: saline with Tween-80 89 % of control | dose: 200.0 mg/kg/injection, schedule: Q04DX003 (ip), vehicle: saline with Tween-80 89 % of control

O=C(C[n+]1ccccc1)c1ccc(S(=O)(=O)c2ccccc2)cc1
inactive: dose: 12.5 mg/kg/injection, schedule: Q04DX003 (ip), vehicle: Klucel (hydroxypropylcellulose) (HPC) 95 % of control | dose: 25.0 mg/kg/injection, schedule: Q04DX003 (ip), vehicle: Klucel (hydroxypropylcellulose) (HPC) 93 % of control | dose: 50.0 mg/kg/injection, schedule: Q04DX003 (ip), vehicle: Klucel (hydroxypropylcellulose) (HPC) 89 % of control | [1] 94 % of control

Cc1cccc2c1N=C(C(F)(F)F)CC2=O
inactive: dose: 75.0 mg/kg/injection, schedule: Q01DX001 (ip), vehicle: other 100 % of control | dose: 150.0 mg/kg/injection, schedule: Q01DX001 (ip), vehicle: other 96 % of control | dose: 300.0 mg/kg/injection, schedule: Q01DX001 (ip), vehicle: other 97 % of control

CC1(C)C2(SCCS2)C(C)(C)C12SCCS2
inactive: [2] 96 % of control | [3] 95 % of control | [4] 104 % of control

Nc1ccc(Cl)cc1
inactive: dose: 100.0 mg/kg/injection, schedule: Q01DX001 (ip), vehicle: carboxymethylcellulose (CMC) 98 % of control | dose: 200.0 mg/kg/injection, schedule: Q01DX001 (ip), vehicle: carboxymethylcellulose (CMC) 101 % of control | dose: 400.0 mg/kg/injection, schedule: Q01DX001 (ip), vehicle: carboxymethylcellulose (CMC) 110 % of control

COC(=O)C(C)CSCc1ccccc1 (stereo not given)
inactive: [5] 108 % of control | [6] 89 % of control

O=C(CCl)c1c(O)[n+](Cc2ccccc2)c2ccccn12
inactive: [7] 100 % of control | [8] 96 % of control | [9] 91 % of control | [10] 91 % of control | dose: 150.0 mg/kg/injection, schedule: Q04DX003 (ip), vehicle: saline 97 % of control | [11] 94 % of control | dose: 225.0 mg/kg/injection, schedule: Q04DX003 (ip), vehicle: saline 103 % of control | dose: 335.0 mg/kg/injection, schedule: Q04DX003 (ip), vehicle: saline 106 % of control

CCCCCCC(O)CCCCCCCCCCCO (stereo not given)
inactive: [2] 108 % of control | [3] 97 % of control | [4] 103 % of control

OC(c1ccccc1)(c1ccccc1)c1cccnc1
inactive: dose: 75.0 mg/kg/injection, schedule: Q04DX002 (ip), vehicle: saline 105 % of control | dose: 150.0 mg/kg/injection, schedule: Q04DX002 (ip), vehicle: saline 93 % of control

NC(=O)NCCO
inactive: [9] 98 % of control | [11] 106 % of control | [12] 98 % of control

CCOC(=O)C(C#N)C(C)CC (stereo not given)
inactive: [2] 102 % of control | [1] 98 % of control | [3] 98 % of control | dose: 200.0 mg/kg/injection, schedule: Q04DX003 (ip), vehicle: Klucel (hydroxypropylcellulose) (HPC) 102 % of control | [4] 94 % of control | dose: 400.0 mg/kg/injection, schedule: Q04DX003 (ip), vehicle: Klucel (hydroxypropylcellulose) (HPC) 90 % of control

COCCCn1nnc2ccccc2c1=O
inactive: [10] 98 % of control | dose: 200.0 mg/kg/injection, schedule: Q04DX003 (ip), vehicle: saline 93 % of control | dose: 400.0 mg/kg/injection, schedule: Q04DX003 (ip), vehicle: saline 100 % of control

CCOC(=O)c1ccc(Nc2nnc(-c3ccccc3Cl)s2)cc1
inactive: dose: 25.0 mg/kg/injection, schedule: Q04DX002 (ip), vehicle: gum acacia 98 % of control | dose: 100.0 mg/kg/injection, schedule: Q04DX002 (ip), vehicle: gum acacia 88 % of control | dose: 200.0 mg/kg/injection, schedule: Q04DX002 (ip), vehicle: gum acacia 102 % of control | dose: 400.0 mg/kg/injection, schedule: Q04DX002 (ip), vehicle: gum acacia 94 % of control

COc1ccc(C(C#N)C(O)(c2ccccc2)c2ccccc2)cc1 (stereo not given)
inactive: [13] 104 % of control | [9] 107 % of control | [11] 98 % of control | [12] 93 % of control

Cc1ccc(NC(=S)NC(=O)/C=C/c2ccccc2)cc1Cl
inactive: dose: 25.0 mg/kg/injection, schedule: Q01DX009 (ip), vehicle: saline with Tween-80 94 % of control | dose: 50.0 mg/kg/injection, schedule: Q01DX009 (ip), vehicle: saline with Tween-80 96 % of control and 86 % of control | dose: 100.0 mg/kg/injection, schedule: Q01DX001 (ip), vehicle: saline with Tween-80 87 % of control | dose: 100.0 mg/kg/injection, schedule: Q04DX002 (ip), vehicle: saline with Tween-80 97 % of control | dose: 200.0 mg/kg/injection, schedule: Q01DX001 (ip), vehicle: saline with Tween-80 87 % of control | dose: 200.0 mg/kg/injection, schedule: Q04DX002 (ip), vehicle: saline with Tween-80 87 % of control and 89 % of control | dose: 400.0 mg/kg/injection, schedule: Q04DX002 (ip), vehicle: saline with Tween-80 87 % of control and 89 % of control

C[N+]1(CCCNC(=O)Nc2ccc(Cl)cc2)CCOCC1
inactive: dose: 12.5 mg/kg/injection, schedule: Q04DX002 (ip), vehicle: saline 105 % of control | dose: 25.0 mg/kg/injection, schedule: Q04DX002 (ip), vehicle: saline 102 % of control | dose: 50.0 mg/kg/injection, schedule: Q04DX002 (ip), vehicle: saline 97 % of control

COc1cc(OC)c2c(=O)c(O)c(-c3ccc(OC)c(OC)c3)oc2c1
inactive: [13] 91 % of control | [9] 98 % of control | [11] 98 % of control | [12] 96 % of control

N#CCCC(=O)c1cccnc1
inactive: [5] 108 % of control | dose: 200.0 mg/kg/injection, schedule: Q04DX002 (ip), vehicle: saline 90 % of control | [6] 93 % of control

CCOC(=O)CCC1CCCC1CC(=O)OCC (stereo not given)
inactive: dose: 100.0 mg/kg/injection, schedule: Q01DX001 (ip), vehicle: acetone 97 % of control | dose: 200.0 mg/kg/injection, schedule: Q01DX001 (ip), vehicle: acetone 101 % of control | dose: 400.0 mg/kg/injection, schedule: Q01DX001 (ip), vehicle: acetone 86 % of control

CC(C)Cc1ccc(C[N+]23CN4CN(CN(C4)C2)C3)cc1
inactive: dose: 75.0 mg/kg/injection, schedule: Q01DX001 (ip), vehicle: saline 100 % of control | dose: 150.0 mg/kg/injection, schedule: Q01DX001 (ip), vehicle: saline 96 % of control | dose: 300.0 mg/kg/injection, schedule: Q01DX001 (ip), vehicle: saline 102 % of control

NC(=O)Nc1ccccc1-c1ccccc1
inactive: dose: 100.0 mg/kg/injection, schedule: Q04DX002 (ip), vehicle: Klucel (hydroxypropylcellulose) (HPC) 103 % of control | dose: 200.0 mg/kg/injection, schedule: Q04DX002 (ip), vehicle: Klucel (hydroxypropylcellulose) (HPC) 109 % of control | dose: 400.0 mg/kg/injection, schedule: Q04DX002 (ip), vehicle: Klucel (hydroxypropylcellulose) (HPC) 103 % of control

CCCCNCC1COc2cccc(OCC)c2O1 (stereo not given)
inactive: dose: 6.25 mg/kg/injection, schedule: Q01DX009 (ip), vehicle: saline 107 % of control | dose: 12.5 mg/kg/injection, schedule: Q01DX009 (ip), vehicle: saline 105 % of control | dose: 12.5 mg/kg/injection, schedule: Q04DX003 (ip), vehicle: saline 106 % of control | dose: 25.0 mg/kg/injection, schedule: Q01DX009 (ip), vehicle: saline 108 % of control | [7] 95 % of control | dose: 50.0 mg/kg/injection, schedule: Q01DX009 (ip), vehicle: saline 113 % of control | [8] 108 % of control | [9] 103 % of control | [10] 95 % of control
